# Patent US11014929B2, “Pyrazolopyrimidine compounds and uses thereof” (Incyte Corporation, priority 2016, dated 2021)
# Target: HPK1 (Homo sapiens (Human), UniProt Q92918)
# Experiment: HPK1 Kinase Binding Assay
# Conditions: LanthaScreen tracer 222 binding, active HPK1, one hour incubation at 25° C.
# Outline: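 This is a LanthaScreen tracer-binding format: a tracer 222/Eu-anti-GST antibody mix (18 nM and 4 nM solution) is added to active HPK1 (4 nM solution) with 3-fold, 11-point compound dilutions. Incubation is 1 h at 25 °C in HEPES pH 7.5 buffer before reading, and Ki is determined.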
# Chain of HPK1 (Q92918 1-346): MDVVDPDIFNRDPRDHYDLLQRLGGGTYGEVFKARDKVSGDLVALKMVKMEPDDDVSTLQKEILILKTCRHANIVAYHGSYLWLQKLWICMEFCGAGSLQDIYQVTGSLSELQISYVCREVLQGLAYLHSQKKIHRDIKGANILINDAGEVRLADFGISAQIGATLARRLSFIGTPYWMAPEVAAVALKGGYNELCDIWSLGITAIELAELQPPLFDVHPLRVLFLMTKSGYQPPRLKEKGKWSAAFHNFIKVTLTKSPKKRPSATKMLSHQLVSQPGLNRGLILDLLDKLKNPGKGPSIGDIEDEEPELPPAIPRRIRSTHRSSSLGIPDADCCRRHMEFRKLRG
row,SMILES,Ki
1,"CNc1ncc(-c2n[nH]c3cnc(-c4c(F)cc5c(c4F)CNCC5)nc23)cn1 [Example 94, 5-(5-(6,8-Difluoro-1,2,3,4-tetrahydroisoquinolin-7-yl)-1H-pyrazolo[4,3-d]pyrimidin-3-yl)-N-methylpyrimidin-2-amine]",≤ 100 nM
2,"CS(=O)(=O)NCc1ccc(-c2n[nH]c3cnc(-c4c(F)cc5c(c4F)CNCC5)nc23)cc1 [Example 95, N-(4-(5-(6,8-Difluoro-1,2,3,4-tetrahydroisoquinolin-7-yl)-1H-pyrazolo[4,3-d]pyrimidin-3-yl)benzyl)methanesulfonamide]",≤ 100 nM
3,"O=S(=O)(c1ccc(-c2n[nH]c3cnc(-c4c(F)cc5c(c4F)CNCC5)nc23)cc1)N1CCC1 [Example 96, 7-(3-(4-(Azetidin-1-ylsulfonyl)phenyl)-1H-pyrazolo[4,3-d]pyrimidin-5-yl)-6,8-difluoro-1,2,3,4-tetrahydroisoquinoline]",≤ 100 nM
4,"Fc1cc2c(c(F)c1-c1ncc3[nH]nc(-c4ccc(OC(F)F)nc4)c3n1)CNCC2 [Example 97, 7-(3-(6-(Difluoromethoxy)pyridin-3-yl)-1H-pyrazolo[4,3-d]pyrimidin-5-yl)-6,8-difluoro-1,2,3,4-tetrahydroisoquinoline]",≤ 100 nM
5,"Fc1cc2c(c(F)c1-c1ncc3[nH]nc(-c4ccc(N5CCOCC5)nc4)c3n1)CNCC2 [Example 98, 4-(5-(5-(6,8-Difluoro-1,2,3,4-tetrahydroisoquinolin-7-yl)-1H-pyrazolo[4,3-d]pyrimidin-3-yl)pyridin-2-yl)morpholine]",≤ 100 nM
6,"CN1CCN(c2ccc(-c3n[nH]c4cnc(-c5c(F)cc6c(c5F)CNCC6)nc34)cc2)CC1 [Example 99, 6,8-Difluoro-7-(3-(4-(4-methylpiperazin-1-yl)phenyl)-1H-pyrazolo[4,3-d]pyrimidin-5-yl)-1,2,3,4-tetrahydroisoquinoline]",≤ 100 nM
7,"COc1ccc(-c2ncc3[nH]nc(-c4ccc(N5CCN(C)CC5)cc4)c3n2)c2c1CNCC2 [Example 100, 8-Methoxy-5-(3-(4-(4-methylpiperazin-1-yl)phenyl)-1H-pyrazolo[4,3-d]pyrimidin-5-yl)-1,2,3,4-tetrahydroisoquinoline]",≤ 100 nM
8,"CN1CCN(c2ccc(-c3n[nH]c4cnc(-c5ccc6cccnc6c5F)nc34)cc2)CC1 [Example 101, 8-Fluoro-7-(3-(4-(4-methylpiperazin-1-yl)phenyl)-1H-pyrazolo[4,3-d]pyrimidin-5-yl)quinoline]",≤ 100 nM
9,"COc1ccncc1-c1ncc2[nH]nc(-c3ccc(N4CCN(C)CC4)cc3)c2n1 [Example 102, 5-(4-Methoxypyridin-3-yl)-3-(4-(4-methylpiperazin-1-yl)phenyl)-1H-pyrazolo[4,3-d]pyrimidine]",≤ 100 nM
10,"COc1ccncc1-c1ncc2[nH]nc(-c3ccc(N4CCN(C)CC4)nc3)c2n1 [Example 103, 5-(4-Methoxypyridin-3-yl)-3-(6-(4-methylpiperazin-1-yl)pyridin-3-yl)-1H-pyrazolo[4,3-d]pyrimidine]",≤ 100 nM
11,"CNCc1cc(C)c(-c2ncc3[nH]nc(-c4ccc(N5CCN(C)CC5)cc4)c3n2)cn1 [Example 104, N-Methyl-1-(4-methyl-5-(3-(4-(4-methylpiperazin-1-yl)phenyl)-1H-pyrazolo[4,3-d]pyrimidin-5-yl)pyridin-2-yl)methanamine]",≤ 100 nM
12,"CN1CCN(Cc2ccc(-c3n[nH]c4cnc(-c5c(F)ccc6c5CCNC6)nc34)cc2)CC1 [Example 106, 6-Fluoro-5-(3-(4-((4-methylpiperazin-1-yl)methyl)phenyl)-1H-pyrazolo[4,3-d]pyrimidin-5-yl)-1,2,3,4-tetrahydroisoquinoline]",≤ 100 nM
13,"Cc1c2c(cc(F)c1-c1ncc3[nH]nc(-c4ccnc(N5CCN(C)CC5)c4)c3n1)CCNC2 [Example 107, 6-Fluoro-8-methyl-7-(3-(2-(4-methylpiperazin-1-yl)pyridin-4-yl)-1H-pyrazolo[4,3-d]pyrimidin-5-yl)-1,2,3,4-tetrahydroisoquinoline]",≤ 100 nM
14,"CC(=O)N1CCN(c2ccc(-c3n[nH]c4cnc(-c5c(F)cc6c(c5C)CNCC6)nc34)cc2)CC1 [Example 108, 1-(4-(4-(5-(6-Fluoro-8-methyl-1,2,3,4-tetrahydroisoquinolin-7-yl)-1H-pyrazolo[4,3-d]pyrimidin-3-yl)phenyl)piperazin-1-yl)ethanone]",≤ 100 nM
15,"Cc1c2c(cc(F)c1-c1ncc3[nH]nc(-c4ccc(N5CCOCC5)nc4)c3n1)CCNC2 [Example 109, 4-(5-(5-(6-Fluoro-8-methyl-1,2,3,4-tetrahydroisoquinolin-7-yl)-1H-pyrazolo[4,3-d]pyrimidin-3-yl)pyridin-2-yl)morpholine]",≤ 100 nM
16,"Cc1c2c(cc(F)c1-c1ncc3[nH]nc(-c4ccc(N5CCN(C)CC5)nc4)c3n1)CCNC2 [Example 110, 6-Fluoro-8-methyl-7-(3-(6-(4-methylpiperazin-1-yl)pyridin-3-yl)-1H-pyrazolo[4,3-d]pyrimidin-5-yl)-1,2,3,4-tetrahydroisoquinoline]",≤ 100 nM
17,"Cc1c2c(cc(F)c1-c1ncc3[nH]nc(-c4ccc(N5CCN(C)CC5)cc4)c3n1)CCNC2 [Example 111, 6-Fluoro-8-methyl-7-(3-(4-(4-methylpiperazin-1-yl)phenyl)-1H-pyrazolo[4,3-d]pyrimidin-5-yl)-1,2,3,4-tetrahydroisoquinoline]",≤ 100 nM
18,"Cc1cc2c(c(F)c1-c1ncc3[nH]nc(-c4ccc(N5CCN(C)CC5)nc4)c3n1)CNCC2 [Example 112, 8-Fluoro-6-methyl-7-(3-(6-(4-methylpiperazin-1-yl)pyridin-3-yl)-1H-pyrazolo[4,3-d]pyrimidin-5-yl)-1,2,3,4-tetrahydroisoquinoline]",≤ 100 nM
19,"CNC1CCc2c1cc(F)c(-c1ncc3[nH]nc(-c4ccc(N5CCOCC5)nc4)c3n1)c2F (stereo not drawn) [Example 113, 4,6-Difluoro-N-methyl-5-(3-(6-morpholinopyridin-3-yl)-1H-pyrazolo[4,3-d]pyrimidin-5-yl)-2,3-dihydro-1H-inden-1-amine]",≤ 100 nM

# Second part, the molecule after the results:
row,Ki,SMILES
1,≤ 100 nM,"Cc1cc(C2CCCN2)cc(F)c1-c1ncc2[nH]nc(-c3ccc(N4CCN(C)CC4)cc3)c2n1 (stereo not drawn) [Example 80, 5-(2-Fluoro-6-methyl-4-(pyrrolidin-2-yl)phenyl)-3-(4-(4-methylpiperazin-1-yl)phenyl)-1H-pyrazolo[4,3-d]pyrimidine]"
2,≤ 100 nM,"Cc1cc(C2CCCCN2)cc(F)c1-c1ncc2[nH]nc(-c3ccc(N4CCN(C)CC4)cc3)c2n1 (stereo not drawn) [Example 81, 5-(2-Fluoro-6-methyl-4-(piperidin-2-yl)phenyl)-3-(4-(4-methylpiperazin-1-yl)phenyl)-1H-pyrazolo[4,3-d]pyrimidine]"
3,≤ 100 nM,"Cn1cc(-c2n[nH]c3cnc(-c4c(F)cc(NC(=O)CN5CCCC5)cc4F)nc23)cn1 [Example 82, N-(3,5-Difluoro-4-(3-(1-methyl-1H-pyrazol-4-yl)-1H-pyrazolo[4,3-d]pyrimidin-5-yl)phenyl)-2-(pyrrolidin-1-yl)acetamide]"
4,≤ 100 nM,"CN(C)CC(=O)Nc1cc(F)c(-c2ncc3[nH]nc(-c4cnn(C)c4)c3n2)c(F)c1 [Example 83, N-(3,5-Difluoro-4-(3-(1-methyl-1H-pyrazol-4-yl)-1H-pyrazolo[4,3-d]pyrimidin-5-yl)phenyl)-2-(dimethylamino)acetamide]"
5,≤ 100 nM,"CNCc1cc(F)c(-c2ncc3[nH]nc(-c4cnn(C)c4)c3n2)c(F)c1 [Example 84, 1-(3,5-Difluoro-4-(3-(1-methyl-1H-pyrazol-4-yl)-1H-pyrazolo[4,3-d]pyrimidin-5-yl)phenyl)-N-methylmethanamine]"
6,≤ 100 nM,"CNC(C)c1cc(F)c(-c2ncc3[nH]nc(-c4cnn(C)c4)c3n2)c(F)c1 (stereo not drawn) [Example 85, 1-(3,5-Difluoro-4-(3-(1-methyl-1H-pyrazol-4-yl)-1H-pyrazolo[4,3-d]pyrimidin-5-yl)phenyl)-N-methylethanamine]"
7,≤ 100 nM,"CNCc1cc(F)c(-c2ncc3[nH]nc(-c4cnn(C)c4)c3n2)c(OC)c1 [Example 86, 1-(3-Fluoro-5-methoxy-4-(3-(1-methyl-1H-pyrazol-4-yl)-1H-pyrazolo[4,3-d]pyrimidin-5-yl)phenyl)-N-methylmethanamine]"
8,≤ 100 nM,"CCNCc1cc(F)c(-c2ncc3[nH]nc(-c4cnn(C)c4)c3n2)c(OC)c1 [Example 87, N-(3-Fluoro-5-methoxy-4-(3-(1-methyl-1H-pyrazol-4-yl)-1H-pyrazolo[4,3-d]pyrimidin-5-yl)benzyl)ethanamine]"
9,≤ 100 nM,"COc1cccc(F)c1-c1ncc2[nH]nc(-c3cc(C)n[nH]3)c2n1 [Example 88, 5-(2-Fluoro-6-methoxyphenyl)-3-(3-methyl-1H-pyrazol-5-yl)-1H-pyrazolo[4,3-d]pyrimidine]"
10,≤ 100 nM,"COc1cccc(F)c1-c1ncc2[nH]nc(OCc3ccccc3)c2n1 [Example 89, 3-(Benzyloxy)-5-(2-fluoro-6-methoxyphenyl)-1H-pyrazolo[4,3-d]pyrimidine]"
11,≤ 100 nM,"CN1CCN(c2cc(-c3n[nH]c4cnc(-c5c(F)cc6c(c5F)CNCC6)nc34)ccn2)CC1 [Example 90, 6,8-Difluoro-7-(3-(2-(4-methylpiperazin-1-yl)pyridin-4-yl)-1H-pyrazolo[4,3-d]pyrimidin-5-yl)-1,2,3,4-tetrahydroisoquinoline]"
12,≤ 100 nM,"OCCNc1ncc(-c2n[nH]c3cnc(-c4c(F)cc5c(c4F)CNCC5)nc23)cn1 [Example 91, 2-(5-(5-(6,8-Difluoro-1,2,3,4-tetrahydroisoquinolin-7-yl)-1H-pyrazolo[4,3-d]pyrimidin-3-yl)pyrimidin-2-ylamino)ethanol]"
13,≤ 100 nM,"CN1CCN(c2ncc(-c3n[nH]c4cnc(-c5c(F)cc6c(c5F)CNCC6)nc34)cn2)CC1 [Example 92, 6,8-Difluoro-7-(3-(2-(4-methylpiperazin-1-yl)pyrimidin-5-yl)-1H-pyrazolo[4,3-d]pyrimidin-5-yl)-1,2,3,4-tetrahydroisoquinoline]"
14,≤ 100 nM,"CN(C)c1ncc(-c2n[nH]c3cnc(-c4c(F)cc5c(c4F)CNCC5)nc23)cn1 [Example 93, 5-(5-(6,8-Difluoro-1,2,3,4-tetrahydroisoquinolin-7-yl)-1H-pyrazolo[4,3-d]pyrimidin-3-yl)-N,N-dimethylpyrimidin-2-amine]"
